Data as given in ChEMBL document CHEMBL4376806, “Antibiotic Adjuvants: Make Antibiotics Great Again!” (2019).

Legend:
Klebsiella pneumoniae [1] = assay: Potentiation of meropenem-induced antibacterial activity against Klebsiella pneumoniae N11-2218 harboring NDM1 infected in CD1 mouse assessed as mouse survival at 30 mg/kg, sc administered 30 mins post infection and measured 5 days post infection (reference value: 0%); assay type: functional; settings: N11-2218, sc
[2] = molecular target: Metallo-beta-lactamase type 2 (Klebsiella pneumoniae) (UniProt C7C422); assay: Inhibition of beta-lactamase NDM-1 in Klebsiella pneumoniae N11-2218 assessed as potentiation of meropenem-induced antibacterial activity by measuring meropenem MIC at 8 ug/ml (Rvb =32 ug/ml)
Sequence of Metallo-beta-lactamase type 2 (Klebsiella pneumoniae) (C7C422 whole entry): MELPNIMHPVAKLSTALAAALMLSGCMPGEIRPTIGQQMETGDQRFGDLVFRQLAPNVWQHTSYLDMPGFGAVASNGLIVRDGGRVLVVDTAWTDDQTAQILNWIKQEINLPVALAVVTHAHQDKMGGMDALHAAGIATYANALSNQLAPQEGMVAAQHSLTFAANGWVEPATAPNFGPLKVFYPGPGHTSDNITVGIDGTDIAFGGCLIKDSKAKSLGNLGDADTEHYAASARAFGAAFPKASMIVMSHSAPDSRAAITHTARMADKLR

[3] = system: MexAB/OprM (Pseudomonas aeruginosa (strain ATCC 15692 / DSM 22644 / CIP 104116 / JCM14847 / LMG 12228 / 1C / PRS 101 / PAO1)), P52477+P52002+Q51487 [UNDEFINED MUTATION]; assay: Inhibition of MexAB/OprM nalB mutant in Pseudomonas aeruginosa PAO1 K1455 assessed as potentiation of erythromycin-induced antibacterial activity by measuring erythromycin MIC at 20 ug/ml incubated for 18 hrs by CLSI based broth microtitre dilution method (reference value: 256 ug/ml)
Sequence of MexAB/OprM (Pseudomonas aeruginosa (strain ATCC 15692 / DSM 22644 / CIP 104116 / JCM14847 / LMG 12228 / 1C / PRS 101 / PAO1)), P52477+P52002+Q51487 [UNDEFINED MUTATION] (P52002 whole entry, looked up, change not shown): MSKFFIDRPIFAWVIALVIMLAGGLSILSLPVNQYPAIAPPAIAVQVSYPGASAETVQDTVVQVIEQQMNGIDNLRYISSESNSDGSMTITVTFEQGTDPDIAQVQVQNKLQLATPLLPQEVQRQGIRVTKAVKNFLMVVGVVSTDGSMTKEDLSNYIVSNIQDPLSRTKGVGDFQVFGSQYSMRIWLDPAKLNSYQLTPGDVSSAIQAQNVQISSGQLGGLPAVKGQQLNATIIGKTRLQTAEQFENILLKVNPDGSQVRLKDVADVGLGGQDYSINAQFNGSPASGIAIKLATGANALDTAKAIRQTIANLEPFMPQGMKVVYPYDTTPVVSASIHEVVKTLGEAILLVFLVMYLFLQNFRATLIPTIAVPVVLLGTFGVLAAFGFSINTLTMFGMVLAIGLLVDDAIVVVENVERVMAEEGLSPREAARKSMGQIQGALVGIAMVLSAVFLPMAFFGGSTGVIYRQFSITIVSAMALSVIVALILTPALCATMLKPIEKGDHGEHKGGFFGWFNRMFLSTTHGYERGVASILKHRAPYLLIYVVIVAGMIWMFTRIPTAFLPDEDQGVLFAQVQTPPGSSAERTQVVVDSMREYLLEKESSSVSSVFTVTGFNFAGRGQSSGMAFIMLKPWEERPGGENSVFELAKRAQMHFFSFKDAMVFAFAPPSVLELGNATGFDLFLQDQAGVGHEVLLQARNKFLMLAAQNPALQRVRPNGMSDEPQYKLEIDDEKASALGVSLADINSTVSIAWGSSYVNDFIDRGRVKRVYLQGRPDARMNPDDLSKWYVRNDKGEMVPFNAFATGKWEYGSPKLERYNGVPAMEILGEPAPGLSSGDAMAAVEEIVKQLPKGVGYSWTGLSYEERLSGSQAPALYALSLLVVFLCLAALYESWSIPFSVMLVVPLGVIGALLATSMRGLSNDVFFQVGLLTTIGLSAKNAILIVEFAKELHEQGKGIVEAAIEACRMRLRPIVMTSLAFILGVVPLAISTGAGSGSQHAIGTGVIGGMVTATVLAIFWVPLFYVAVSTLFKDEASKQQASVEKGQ
Sequence of MexAB/OprM (Pseudomonas aeruginosa (strain ATCC 15692 / DSM 22644 / CIP 104116 / JCM14847 / LMG 12228 / 1C / PRS 101 / PAO1)), P52477+P52002+Q51487 [UNDEFINED MUTATION] (P52477 whole entry, looked up, change not shown): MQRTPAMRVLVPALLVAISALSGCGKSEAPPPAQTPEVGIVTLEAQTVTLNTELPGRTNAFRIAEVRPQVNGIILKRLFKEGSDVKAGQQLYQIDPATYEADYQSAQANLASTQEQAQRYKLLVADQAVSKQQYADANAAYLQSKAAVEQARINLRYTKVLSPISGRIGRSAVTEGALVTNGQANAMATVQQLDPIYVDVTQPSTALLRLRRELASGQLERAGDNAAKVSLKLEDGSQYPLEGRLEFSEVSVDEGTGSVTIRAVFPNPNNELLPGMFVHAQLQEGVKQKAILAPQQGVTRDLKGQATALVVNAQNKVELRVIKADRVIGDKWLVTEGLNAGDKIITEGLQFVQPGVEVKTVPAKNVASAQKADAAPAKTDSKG
Sequence of MexAB/OprM (Pseudomonas aeruginosa (strain ATCC 15692 / DSM 22644 / CIP 104116 / JCM14847 / LMG 12228 / 1C / PRS 101 / PAO1)), P52477+P52002+Q51487 [UNDEFINED MUTATION] (Q51487 whole entry, looked up, change not shown): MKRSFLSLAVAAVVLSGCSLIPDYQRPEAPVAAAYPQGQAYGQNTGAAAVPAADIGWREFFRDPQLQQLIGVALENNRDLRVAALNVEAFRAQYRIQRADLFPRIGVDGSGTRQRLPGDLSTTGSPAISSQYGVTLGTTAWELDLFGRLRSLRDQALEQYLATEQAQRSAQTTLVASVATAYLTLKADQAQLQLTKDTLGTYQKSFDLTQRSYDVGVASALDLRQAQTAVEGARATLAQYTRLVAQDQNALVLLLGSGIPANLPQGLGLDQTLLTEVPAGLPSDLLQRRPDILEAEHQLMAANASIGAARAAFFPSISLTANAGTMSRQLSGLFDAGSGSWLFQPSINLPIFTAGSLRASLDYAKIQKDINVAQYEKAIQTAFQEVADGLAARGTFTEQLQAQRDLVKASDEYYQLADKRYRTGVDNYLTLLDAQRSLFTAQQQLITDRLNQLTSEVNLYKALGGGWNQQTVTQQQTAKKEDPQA

[4] = system: MexAB/OprM (Pseudomonas aeruginosa (strain ATCC 15692 / DSM 22644 / CIP 104116 / JCM14847 / LMG 12228 / 1C / PRS 101 / PAO1)), P52477+P52002+Q51487 [UNDEFINED MUTATION]; assay: Inhibition of MexAB/OprM nalB mutant in Pseudomonas aeruginosa PAO1 K1455 assessed as potentiation of rifampin-induced antibacterial activity by […] at 20 ug/ml incubated for 18 hrs by CLSI based broth microtitre dilution method (reference value: 16 ug/ml)
[5] = system: MexAB/OprM (Pseudomonas aeruginosa (strain ATCC 15692 / DSM 22644 / CIP 104116 / JCM14847 / LMG 12228 / 1C / PRS 101 / PAO1)), P52477+P52002+Q51487 [UNDEFINED MUTATION]; assay: Inhibition of MexAB/OprM nalB mutant in Pseudomonas aeruginosa PAO1 K1455 assessed as potentiation of tetracycline-induced antibacterial activity by measuring tetracycline MIC at 20 ug/ml incubated for 18 hrs by CLSI based broth microtitre dilution method (reference value: 64 ug/ml)
[6] = system: MexAB/OprM (Pseudomonas aeruginosa (strain ATCC 15692 / DSM 22644 / CIP 104116 / JCM14847 / LMG 12228 / 1C / PRS 101 / PAO1)), P52477+P52002+Q51487 [UNDEFINED MUTATION]; assay: Inhibition of MexAB/OprM nalB mutant in Pseudomonas aeruginosa PAO1 K1455 assessed as potentiation of novobiocin-induced antibacterial activity by measuring novobiocin MIC at 20 ug/ml incubated for 18 hrs by CLSI based broth microtitre dilution method (Rvb > 2048 ug/ml)
[7] = system: MexAB/OprM (Pseudomonas aeruginosa (strain ATCC 15692 / DSM 22644 / CIP 104116 / JCM14847 / LMG 12228 / 1C / PRS 101 / PAO1)), P52477+P52002+Q51487 [UNDEFINED MUTATION]; assay: Inhibition of MexAB/OprM nalB mutant in Pseudomonas aeruginosa PAO1 K1455 assessed as potentiation of levofloxacin-induced antibacterial activity by measuring levofloxacin MIC at 20 ug/ml incubated for 18 hrs by CLSI based broth microtitre dilution method (reference value: 2 ug/ml)
[8] = system: MexAB/OprM (Pseudomonas aeruginosa (strain ATCC 15692 / DSM 22644 / CIP 104116 / JCM14847 / LMG 12228 / 1C / PRS 101 / PAO1)), P52477+P52002+Q51487 [UNDEFINED MUTATION]; assay: Inhibition of MexAB/OprM nalB mutant in Pseudomonas aeruginosa PAO1 K1455 assessed as potentiation of cefotaxime-induced antibacterial activity by measuring cefotaxime MIC at 20 ug/ml incubated for 18 hrs by CLSI based broth microtitre dilution method (reference value: 64 ug/ml)
[9] = molecular target: T1, MexAB/OprM (Pseudomonas aeruginosa (strain ATCC 15692 / DSM 22644 / CIP 104116 / JCM14847 / LMG 12228 / 1C / PRS 101 / PAO1)) (UniProt P52477+P52002+Q51487); assay: Inhibition of MexAB/OprM in Pseudomonas aeruginosa PAO1 assessed as potentiation of novobiocin-induced antibacterial activity by measuring novobiocin MIC at 128 ug/ml incubated for 18 hrs (reference value: 512 ug/ml)
[10] = molecular target: T1, MexAB/OprM (Pseudomonas aeruginosa (strain ATCC 15692 / DSM 22644 / CIP 104116 / JCM14847 / LMG 12228 / 1C / PRS 101 / PAO1)); assay: Inhibition of MexAB/OprM in Pseudomonas aeruginosa PAO1 assessed as potentiation of carbenicillin-induced antibacterial activity by measuring carbenicillin MIC at 128 ug/ml incubated for 18 hrs (reference value: 64 ug/ml)
[11] = molecular target: T1, MexAB/OprM (Pseudomonas aeruginosa (strain ATCC 15692 / DSM 22644 / CIP 104116 / JCM14847 / LMG 12228 / 1C / PRS 101 / PAO1)); assay: Inhibition of MexAB/OprM in Pseudomonas aeruginosa PAO1 assessed as potentiation of trimethoprim-induced antibacterial activity by measuring trimethoprim MIC at 128 ug/ml incubated for 18 hrs (reference value: 128 ug/ml)
[12] = molecular target: T1, MexAB/OprM (Pseudomonas aeruginosa (strain ATCC 15692 / DSM 22644 / CIP 104116 / JCM14847 / LMG 12228 / 1C / PRS 101 / PAO1)); assay: Inhibition of MexAB/OprM in Pseudomonas aeruginosa PAO1 assessed as potentiation of ciprofloxacin-induced antibacterial activity by measuring ciprofloxacin MIC at 128 ug/ml incubated for 18 hrs (reference value: 1 ug/ml)
[13] = molecular target: T1, MexAB/OprM (Pseudomonas aeruginosa (strain ATCC 15692 / DSM 22644 / CIP 104116 / JCM14847 / LMG 12228 / 1C / PRS 101 / PAO1)); assay: Inhibition of MexAB/OprM in Pseudomonas aeruginosa PAO1 assessed as potentiation of chloramphenicol-induced antibacterial activity by measuring chloramphenicol MIC at 128 ug/ml incubated for 18 hrs (reference value: 64 ug/ml)
[14] = molecular target: T1, MexAB/OprM (Pseudomonas aeruginosa (strain ATCC 15692 / DSM 22644 / CIP 104116 / JCM14847 / LMG 12228 / 1C / PRS 101 / PAO1)); assay: Inhibition of MexAB/OprM in Pseudomonas aeruginosa PAO1 assessed as potentiation of tetracycline-induced antibacterial activity by measuring tetracycline MIC at 128 ug/ml incubated for 18 hrs (reference value: 8 ug/ml)
Escherichia coli [15] = assay: Inhibition of beta-lactamase TEM-8 in Escherichia coli CF3 assessed as potentiation of ceftazidime-induced antibacterial activity by measuring ceftazidime MIC (reference value: 64 ug/ml)
Escherichia coli [16] = assay: Inhibition of Beta-lactamase PER-1 in Escherichia coli KB10 assessed as potentiation of ceftazidime-induced antibacterial activity by measuring ceftazidime MIC (Rvb >64 ug/ml)
Klebsiella pneumoniae [17] = assay: Inhibition of beta-lactamase TEM-2 in Klebsiella pneumoniae IP1 assessed as potentiation of ceftazidime-induced antibacterial activity by measuring ceftazidime MIC (reference value: 16 ug/ml)
Klebsiella pneumoniae [18] = assay: Inhibition of Beta-lactamase SHV-2 in Klebsiella pneumoniae IP86 assessed as potentiation of ceftazidime-induced antibacterial activity by measuring ceftazidime MIC (reference value: 64 ug/ml)
[19] = molecular target: Beta-lactamase TEM (Escherichia coli) (UniProt P62593); assay: Inhibition of beta-lactamase TEM-1 in Escherichia coli GN5482 assessed as potentiation of ceftazidime-induced antibacterial activity by measuring ceftazidime MIC (reference value: 4 ug/ml)
Sequence of Beta-lactamase TEM (Escherichia coli) (P62593 whole entry): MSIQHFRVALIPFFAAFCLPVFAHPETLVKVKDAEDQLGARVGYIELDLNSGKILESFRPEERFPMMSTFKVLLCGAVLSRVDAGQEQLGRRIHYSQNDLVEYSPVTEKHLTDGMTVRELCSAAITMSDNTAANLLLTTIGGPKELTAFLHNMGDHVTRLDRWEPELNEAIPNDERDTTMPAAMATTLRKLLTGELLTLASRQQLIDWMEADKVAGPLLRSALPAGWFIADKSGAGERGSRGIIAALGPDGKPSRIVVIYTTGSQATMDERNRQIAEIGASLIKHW

Klebsiella pneumoniae [20] = assay: Inhibition of beta-lactamase TEM-4 in Klebsiella pneumoniae 25637 assessed as potentiation of ceftazidime-induced antibacterial activity by measuring ceftazidime MIC (reference value: 32 ug/ml)
Pseudomonas aeruginosa [21] = assay: Potentiation of gentamicin-induced antibacterial activity against Pseudomonas aeruginosa 03 assessed as gentamicin MIC at 32 ug/ml after 24 hrs by broth microdilution assay (reference value: 625 ug/ml); assay type: functional; settings: Pseudomonas aeruginosa, 03, 24 h
Staphylococcus aureus [22] = assay: Potentiation of amikacin-induced antibacterial activity against Staphylococcus aureus 358 assessed as amikacin MIC at 64 ug/ml after 24 hrs by broth microdilution assay (reference value: 156.2 ug/ml); assay type: functional; settings: Staphylococcus aureus, 358, 24 h
Escherichia coli [23] = assay: Potentiation of neomycin-induced antibacterial activity against Escherichia coli 27 assessed as neomycin MIC at 64 ug/ml after 24 hrs by broth microdilution assay (reference value: 312.5 ug/ml); assay type: functional; settings: Escherichia coli, 27, 24 h
Escherichia coli [24] = assay: Potentiation of gentamicin-induced antibacterial activity against Escherichia coli 27 assessed as gentamicin MIC at 64 ug/ml after 24 hrs by broth microdilution assay (reference value: 625 ug/ml); assay type: functional; settings: Escherichia coli, 27, 24 h
Pseudomonas aeruginosa [25] = assay: Potentiation of amikacin-induced antibacterial activity against Pseudomonas aeruginosa 03 assessed as amikacin MIC at 32 ug/ml after 24 hrs by broth microdilution assay (reference value: 312.5 ug/ml); assay type: functional; settings: Pseudomonas aeruginosa, 03, 24 h
Escherichia coli [26] = assay: Potentiation of amikacin-induced antibacterial activity against Escherichia coli 27 assessed as amikacin MIC at 64 ug/ml after 24 hrs by broth microdilution assay (reference value: 156.2 ug/ml); assay type: functional; settings: Escherichia coli, 27, 24 h
Staphylococcus aureus [27] = assay: Potentiation of neomycin-induced antibacterial activity against Staphylococcus aureus 358 assessed as neomycin MIC at 64 ug/ml after 24 hrs by broth microdilution assay (reference value: 156.2 ug/ml); assay type: functional; settings: Staphylococcus aureus, 358, 24 h
Staphylococcus aureus [28] = assay: Potentiation of gentamicin-induced antibacterial activity against Staphylococcus aureus 358 assessed as gentamicin MIC at 64 ug/ml after 24 hrs by broth microdilution assay (reference value: 312.5 ug/ml); assay type: functional; settings: Staphylococcus aureus, 358, 24 h

N[C@H](CN[C@H](CN[C@@H](CC(=O)O)C(=O)O)C(=O)O)C(=O)O
survival at 30 mg/kg (Klebsiella pneumoniae [1]): 95%
MIC [2]: 1 µg/mL

C[C@H]1[C@H]2CC[C@H]3[C@@H]4CC=C5C[C@@H](N(C)C)CC[C@]5(C)[C@H]4CC[C@]23CN1C
MIC [3]: 32 µg/mL
MIC [4]: 2 µg/mL
MIC [5]: 8 µg/mL
MIC [6]: 256 µg/mL
MIC [7]: 0.25 µg/mL
MIC [8]: 8 µg/mL

O=C(O[C@@H]1Cc2c(O)cc(O)cc2O[C@@H]1c1cc(O)c(O)c(O)c1)c1cc(O)c(O)c(O)c1
MIC [9]: 128 µg/mL
MIC [10]: 64 µg/mL
MIC [11]: 32 µg/mL
MIC [12]: 0.5 µg/mL
MIC [13]: 16 µg/mL
MIC [14]: 2 µg/mL

NC(=O)[C@@H]1CC[C@@H]2CN1C(=O)N2OS(=O)(=O)O
MIC (Escherichia coli [15]): 2 µg/mL
MIC (Escherichia coli [16]): 4 µg/mL
MIC (Klebsiella pneumoniae [17]): 0.5 µg/mL
MIC (Klebsiella pneumoniae [18]): 1 µg/mL
MIC [19]: 0.5 µg/mL
MIC (Klebsiella pneumoniae [20]): 0.5 µg/mL

CC1=CC(=O)c2ccccc2C1=O [MENADIONE]
MIC (Pseudomonas aeruginosa [21]): 2.4 µg/mL
MIC (Staphylococcus aureus [22]): 2.4 µg/mL
MIC (Escherichia coli [23]): 2.4 µg/mL
MIC (Escherichia coli [24]): 2.4 µg/mL
MIC (Pseudomonas aeruginosa [25]): 2.4 µg/mL
MIC (Escherichia coli [26]): 2.4 µg/mL
MIC (Staphylococcus aureus [27]): 2.4 µg/mL
MIC (Staphylococcus aureus [28]): 2.4 µg/mL
